Legend:
[1] = Pharmacokinetics of inhaled (pulmonary/nasal) aerosolized raloxifene in cynomolgus monkeys (Working Example 1)
Protocol: (§1) Six adult cynomolgus monkeys (three males and three females) were used for this study. Males weighed from 5.3 kg to 5.5 kg at the start of the live phase. Females weighed from 3.8 kg to 4.9 kg at the start of the live phase. Each animal was uniquely identified with a number tattooed on the inner thigh.
(§2) The animals were housed individually in stainless steel cages. Rooms were thermostatically set to maintain a temperature of 72° F. and maintain an actual temperature within 8° F. from that set point. The environmental control system is designed to maintain a relative humidity of 20% and a maximum of 80%. Light was on a 12 hour cycle, with lights on between 0600 and 1800. […] On test days, the animals were given primate chow only after the completion of the inhalation exposures. Water was available ad libitum except during exposure times.
(§3) Prior to beginning the live phase of the study, the monkeys were conditioned, over an approximately 3 month period, to be caught, handled, and placed in a restraint chair using the pole-and-collar method. Foods like peanuts, marshmallows, and a variety of dried and fresh fruits were used as training rewards. The time that the monkeys were left in the chair was increased gradually up to 8 hours. By the end of the training period, all the monkeys could be caught quickly, placed into the restraint chair easily, and would allow limb manipulation, including having blood drawn, while in the chair.
(§4) Each monkey was studied once per week for 5 weeks. Target concentrations of raloxifene activity were 0, 3, 10, 0, and 30 mg/m^3 for Weeks 1 through 5 respectively. The activity was determined by correcting the amount of raloxifene collected by the potency of the lot used. Each exposure was for 8 hours, divided into 4 hour segments with 15 minutes in between. During the 15 minute period between the 4 hour exposures, the monkeys were offered juice to drink and apple pieces to eat. The conditioning period described above had used this method to keep the animals from becoming agitated due to hunger or thirst. A 15 minute break in the exposures was not expected to affect the blood levels of raloxifene.
(§5) The monkeys were placed into the restraint prior to each exposure. Two sheets of latex (0.030 in. thick) were placed around the animal's necks to form a seal. A 7-L head dome was placed over the animal's heads as described in J. Appl. […] Airflow of 15 L/min was maintained through the head dome via a calibrated transvector on the exhaust port. The raloxifene was aerosolized using a Wright Dust Feed II. […] The aerosol then entered the head-dome for the monkey to breath.
(§6) Each day, before the monkeys were exposed, the exposure system was set up and a gravimetric sample was taken to determine the raloxifene concentration. The monkey was then placed in the chair and the aerosol was generated using the same generator settings. After the exposure to the monkey, it was removed from the chair, the system re-assembled, and another gravimetric sample taken. The concentrations derived from the 2 gravimetric samples were averaged to obtain the raloxifene concentration for that exposure. Gravimetric concentrations were determined by collecting the aerosol directly from the head-dome onto a 25 mm Gelman type A/E glass fiber filter.

[2] = cynomolgus monkey, in vivo
Protocol: as §1, §2, §3, §4, §5, §6

[3] = cynomolgus monkey, in vivo; remark: listed apart in the source

## O=C(c1ccc(OCCN2CCCCC2)cc1)c1c(-c2ccc(O)cc2)sc2cc(O)ccc12 [raloxifene]
[1]; 8 h inhalation, exposure conc. 3.3 mg Ralox./m^3 of air, plasma
  Cmax (Mean Ralox.): 7 ng/mL
[1]; 8 h inhalation, exposure conc. 9.7 mg Ralox./m^3 of air, plasma
  Cmax (Mean Ralox.): 17 ng/mL
[1]; 8 h inhalation, exposure conc. 26.9 mg Ralox./m^3 of air, plasma
  Cmax (Mean Ralox.): 47 ng/mL
[1]; inhalation, 10 mg/m^3 dose group
  AUC ratio of raloxifene/total raloxifene: 0.56
[1]; inhalation, 30 mg/m^3 dose group
  AUC ratio of raloxifene/total raloxifene: 0.82
[1]; inhalation, males and females
  sex differences in raloxifene, total raloxifene, Cmax, or AUC values: No appreciable sex differences
[1]; oral administration at an equivalent dose as comparison
  blood levels by pulmonary/nasal delivery relative to oral administration: considerably higher than those obtained following oral administration
[1]; pulmonary/nasal delivery
  bioavailability: unexpected high level of bioavailability
[1]; total raloxifene, 8 h inhalation, exposure conc. 26.9 mg Ralox./m^3 of air, plasma
  Cmax (Mean Tot. Ralox.): 84 ng/mL
[2]
  blood levels of raloxifene (level and duration): relatively higher blood levels of raloxifene which lasted for several hours
  initial levels of unmetabolized raloxifene absorbed into the blood: higher, relative to oral delivery
[3]
  breathing frequency: no significant changes
  tidal volume: no significant changes
